Experimental data reported in publication PMC7284125, “Identification of annotated bioactive molecules that impair motility of the blood fluke Schistosoma mansoni” (International Journal for Parasitology: Drugs and Drug …, 2020).
Like-named read-outs stand apart in the source and are kept apart here.

How the values were obtained:
[1] = system: schistosomes; design: method as in Marcellino et al., 2012; conditions: ref Marcellino et al., 2012; cited from earlier work
[2] = system: proteasome; design: method as in Bibo-Verdugo et al., 2019; conditions: in vitro; ref Bibo-Verdugo et al., 2019; cited from earlier work
[3] = system: schistosomes; design: method as in Bibo-Verdugo et al., 2019; conditions: in vitro; ref Bibo-Verdugo et al., 2019; cited from earlier work
[4] = system: S. mansoni schistosomulae; assay: Phenotypic primary screen assay on schistosomulae (phenotype; viability by methylene blue dye exclusion); assay type: cell-based, Schistosoma mansoni
Summary of the method: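 Parasites lacking contraction/relaxation cycles and showing dark internal granulations counted as dead. Movement and body shape were compared with DMSO-treated controls under a stereo microscope at 24 h and at five days of exposure. Larvae came from infected snails shed under light for 2 h at 32 °C.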

[5] = system: S. mansoni adult worms; assay: Motility assay on adult parasites (pixel displacement, relative to DMSO control); assay type: cell-based, Schistosoma mansoni; conditions: secondary screen, 10 μM
Summary of the method: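 Unpaired adult worms from mice 6 weeks post-infection kept in OPTI-MEM with 5% dialyzed FBS and exposed to compounds at 1 and 10 μM for 24 h. Motility filmed 1 min at 10 frames/s, quantified by pixel displacement versus DMSO-treated worms; recovery followed up to five days after washout.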

[6] = system: S. mansoni schistosomulae; assay: Phenotypic primary screen assay on schistosomulae (phenotype; viability by methylene blue dye exclusion); assay type: cell-based; conditions: Schistosoma mansoni
[7] = system: naïve Glo HEK293 cells (no receptor); assay: cAMP luminescence (GloSensor) assay on naïve Glo HEK293 cells (no receptor); assay type: cell-based, human; conditions: 50 μM EPN
Method: The SmGPR2 sequence previously identified ([El-Shehabi and Ribeiro, 2010]) was codon optimized for mammalian expression and subcloned in the vector pCI-neo (Addgene, USA) using the XbaI and NotI restriction enzymes. A FLAG fusion tag ([…]) was introduced at the N-terminal end of the receptor sequence. Stable transfection of HEK293 cells (ATCC; CRL-1573) was performed using the X-tremeGENE 9 DNA transfection reagent (Sigma Aldrich). Cells were then cultured at 37 °C, 5% CO2 in Opti-MEM supplemented with 5% FBS and maintained in 400 μg/mL G418 (Sigma Aldrich) for selection of transformants. […] All cell lines expressing S. mansoni GPCRs were then transfected with the GloSensor encoding plasmid p22F (Promega) and media was supplemented with 100 μg/mL hygromycin for stable expression (ThermoFisher).
Adherent HEK293 cells were seeded at a density of 5 x 10^4 cells/well (96-well plate) in Opti-MEM without FBS or antibiotics and incubated overnight at 37 °C and 5% CO2 prior to the assay. In place of the media, 100 μL HBSS supplemented with 0.1% bovine serum albumin (BSA), 500 μM 3-isobutyl-1-methylxanthine (IBMX, Sigma Aldrich), 20 mM HEPES (pH 7.4) and 1 mg/mL D-luciferin (Goldbio) was added to each well. After a 2 h incubation period at room temperature, luminescence background was recorded, and compounds and control ligands were added at 10X concentration. Immediately after compound addition, luminescence was read over a 45 min period to detect compounds stimulating cAMP release through receptor activation. […] For each assay, luminescence responses were recorded in triplicate and repeated with four independant cell batches. Compounds were also added to naïve Glo HEK293 cells (no receptor) and the robustness of the assay was calculated as: Z^'=1−3×(SDmax+SDmin)/Meanmax−Meanmin with max and min referring respectively to cells expressing GPCRs and Glo (no receptor) cells. Cellular viability was assessed using a CellTiter Glo 2.0 kit (Promega). Glo cells were exposed to 10 μM of each hit compound for 3 h in Opti-MEM at 37 °C, 5% CO2. An equimolar concentration of tamoxifen (Sigma Aldrich) was used as a positive control. 2X cell lysis media was then added and end-point luminescence recorded after a 10 min stabilization time.

[8] = system: S. mansoni schistosomulae; assay: Motility assay on schistosomulae (pixel displacement, relative to DMSO control); assay type: cell-based, Schistosoma mansoni; conditions: for activity at 1 µM: Schistosoma mansoni, read-out: Fractional motility
Summary of the method: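 Motility was scored by pixel displacement from 1-min videos (10 frames/s) and compared with DMSO controls. Schistosomulae (200/well, Opti-MEM, 5% dialyzed FBS, no antibiotics) received compound at 1 or 10 μM for 24 h; selected hits were also followed at 1, 3, 6 and 12 h.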

[9] = target: SmD2 (Schistosoma mansoni, UniProt G4LUJ1); assay: cell-based; assay type: cell-based
Sequence of SmD2 (G4LUJ1 entry or part of it): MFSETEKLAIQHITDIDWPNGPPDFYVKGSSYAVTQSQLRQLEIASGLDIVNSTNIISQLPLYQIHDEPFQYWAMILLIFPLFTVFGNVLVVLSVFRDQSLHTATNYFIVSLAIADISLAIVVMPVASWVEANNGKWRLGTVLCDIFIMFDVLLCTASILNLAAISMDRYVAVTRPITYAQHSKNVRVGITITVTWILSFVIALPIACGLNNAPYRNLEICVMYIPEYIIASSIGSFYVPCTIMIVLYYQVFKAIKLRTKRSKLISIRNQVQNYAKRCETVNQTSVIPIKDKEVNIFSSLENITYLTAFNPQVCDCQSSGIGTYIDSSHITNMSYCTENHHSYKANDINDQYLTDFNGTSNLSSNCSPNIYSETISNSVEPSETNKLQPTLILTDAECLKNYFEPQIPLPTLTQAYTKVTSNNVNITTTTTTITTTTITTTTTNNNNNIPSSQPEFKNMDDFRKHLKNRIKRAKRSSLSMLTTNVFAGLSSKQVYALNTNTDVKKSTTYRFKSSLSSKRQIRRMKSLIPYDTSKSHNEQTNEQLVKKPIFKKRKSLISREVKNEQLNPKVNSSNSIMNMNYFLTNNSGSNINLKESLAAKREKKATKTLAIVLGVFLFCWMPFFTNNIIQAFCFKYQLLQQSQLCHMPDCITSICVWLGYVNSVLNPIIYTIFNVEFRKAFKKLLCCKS

[10] = system: adult schistosomes; design: method as in Neves et al., 2016; conditions: transient hyperactivity, ref Neves et al., 2016, cited from earlier work
[11] = three-day-old schistosomulae, 10 μM, 24 h, estimated 5 days post compound exposure
[12] = three-day-old schistosomulae, 10 μM, 24 h, calculated 5 days post compound exposure, read-out: Viability (%)
[13] = 120 h, schistosomulae, secondary screen, 24h exposure, read at D5, 1 µM
[14] = schistosomulae, secondary screen, 24h exposure, read at D1, 1 µM
[15] = schistosomulae, secondary screen, 24h exposure, read at D1, 10 µM
[16] = schistosomulae, secondary screen, 24h exposure, read at D5, 10 µM

| SMILES | Phenotype [4, 11] | Fractional motility ([5]; D1, Female adult worms) | Fractional motility ([5]; D1, Male adult worms) | Fractional motility ([5]; D5, Female adult worms) | Fractional motility ([5]; D5, Male adult worms) | viability at 10 µM [6, 12] | activity at 1 µM [8, 13] | activity at 1 µM [8, 14] | Fractional motility [8, 15] | Fractional motility [8, 16] | also measured |
| --- | --- | --- | --- | --- | --- | --- | --- | --- | --- | --- | --- |
| CC(C)C[C@H](NC(=O)[C@H](CCc1ccccc1)NC(=O)CN1CCOCC1)C(=O)N[C@@H](Cc1ccccc1)C(=O)N[C@@H](CC(C)C)C(=O)[C@@]1(C)CO1 [carfilzomib] |  |  |  |  |  |  |  |  |  |  | motility reduction [1]: > 90%; reduction of proteasome activity [2]: > 75%; reduction of worm motility [3]: > 85% |
| CC(C)C[C@H](NC(=O)[C@H](Cc1ccccc1)NC(=O)c1cnccn1)B(O)O [bortezomib] |  |  |  |  |  |  |  |  |  |  | motility reduction [1]: > 90%; reduction of proteasome activity [2]: > 75%; reduction of worm motility [3]: > 85% |
| O=C1CCc2ccc(OCCCCN3CCN(c4cccc(Cl)c4Cl)CC3)cc2N1 [Aripiprazole] | granulated | 0.19 | 0.50 | -0.80 | -0.14 | 96.5% | -61% | -48% | -0.15 | -0.56 | inhibition of EPN-evoked luminescence [7]: ≥ 50% |
| NC(=O)C(c1ccccc1)(c1ccccc1)[C@@H]1CCN(CCc2ccc3c(c2)CCO3)C1 [Darifenacin] | elongated, granulated | 1.90 | 3.54 | -0.69 | -0.23 |  | -59% | -60% | -0.70 | 0.35 | viability at 10 µM [6]: 98.5% |
| O=C(CCCN1CCC2(CC1)C(=O)NCN2c1ccccc1)c1ccc(F)cc1 [spiperone] |  |  |  |  |  |  |  |  |  |  | IC50 ([9]; inhibition of EPN-evoked luminescence, SmD2 expressing HEK293 cells, read-out: IC50): 1.51 µM |
| CNCC[C@H](Oc1cccc2ccccc12)c1cccs1 [Duloxetine] |  | 0.62 | 4.31 | 0.30 | 0.54 |  |  |  |  |  | Phenotype [4]: granulated; viability at 10 µM [6]: 90%; inhibition of EPN-evoked luminescence [7]: ≥ 50%; IC50 [9]: 5.95 µM; inhibition at 10 µM ([9]; HEK293, read-out: inhibition of EPN-evoked luminescence): ≥ 50%; activity at 1 µM ([8]; 120 h): -13% |
| Fc1ccc([C@@H]2CCNC[C@H]2COc2ccc3c(c2)OCO3)cc1 [Paroxetine] | granulated | 0.47 | 1.07 | -0.42 | -0.49 | 90% |  |  |  |  | EC50 ([10]; female worms): 11.9 µM; EC50 ([10]; male worms): 2.7 µM; activity at 1 µM ([8]; 120 h, Selleckchem customized library secondary screen, 24h, D5, 1 µM): 256%; Fractional motility ([8]; Selleckchem customized library secondary screen, 24h, D1, 10 µM): 55.45; Fractional motility ([8]; Selleckchem customized library secondary screen, 24h, D5, 10 µM): 1.54; motility phenotype in words ([8]; schistosomulae, after 24 h exposure): high levels of hypermotility |
| C#C[C@]1(O)C=C[C@H]2[C@@H]3CCC4=CC(=O)CC[C@@H]4[C@H]3CC[C@@]21CC [Gestodene] | granulated | 1.24 | 3.68 |  |  | 98% | -29% | 51% | 4.27 | -0.32 |  |
